Laboratory results from PMC12074917, “Molecular pharmacokinetic mechanism of JBP485 against aristolochic acid I (AAI) -induced nephrotoxicity” (Frontiers in Pharmacology, 2025).

Columns and labels:
hOAT3 = target: T1, hOAT3 (Homo sapiens, UniProt Q8TCC7); experiment: Uptake of AAI by hOAT3-transfected HEK293 cells with or without JBP485; type: cell-based
T1 construct: expressed in transfected cells; host or cells: HEK293
T1 sequence (Q8TCC7 1-542): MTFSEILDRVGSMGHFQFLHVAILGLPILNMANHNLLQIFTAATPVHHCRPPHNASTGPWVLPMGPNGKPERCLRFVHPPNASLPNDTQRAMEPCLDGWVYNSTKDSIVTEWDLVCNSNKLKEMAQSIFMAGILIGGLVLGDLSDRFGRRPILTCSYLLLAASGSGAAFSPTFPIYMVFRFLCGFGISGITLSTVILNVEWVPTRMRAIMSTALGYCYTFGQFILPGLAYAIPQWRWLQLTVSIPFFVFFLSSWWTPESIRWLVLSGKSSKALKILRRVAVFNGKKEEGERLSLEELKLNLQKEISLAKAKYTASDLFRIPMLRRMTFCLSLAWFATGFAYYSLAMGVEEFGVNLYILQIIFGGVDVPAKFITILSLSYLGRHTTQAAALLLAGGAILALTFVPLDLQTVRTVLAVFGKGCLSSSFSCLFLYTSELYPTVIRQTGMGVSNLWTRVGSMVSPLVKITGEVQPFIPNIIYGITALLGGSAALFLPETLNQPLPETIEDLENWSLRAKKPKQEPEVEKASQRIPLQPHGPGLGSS
Procedure: Uptake experiments with hOAT1/3-HEK293 cells were performed as previously described ([Zhu et al., 2020]). Uptake was initiated by adding transport buffer (1 mL) with AAI (1 μM) and/or JBP485 (500 μM) after the cells were washed twice and incubated with transport buffer at 37°C. Moreover, the concentration-dependent uptake of AAI and the effects of JBP485 on AAI uptake were examined. Uptake was terminated upon the removal of the medium. The cells were washed three times with 1 mL of ice-cold Hanks’ balanced salt solution, lysed with 0.3 mL of 0.1% (v/v) Triton X-100, and then transferred to a polythene tube for quantification by LC-MS/MS. The protein level was measured using the BCA method (Solarbio, Beijing, China) with bovine serum albumin serving as the standard.
(§1) The concentrations of the test compounds in plasma, urine, and cell lysates were determined using an Agilent HP1200 liquid chromatography system (Agilent Technology Inc., SC, CA, United States) and an API 3200 triple-quadrupole mass spectrometer (Applied Biosystems, SC, CA, United States). After protein precipitation using acetonitrile, the analyte was separated on a Hypersil BDS C18 column. The mobile phase consisted of acetonitrile and water containing 0.1% (v/v) formic acid (80:20, v/v). The flow rate was 0.4 mL/min. The mass spectrometer was equipped with an electrospray ionization (ESI) source. Data were acquired in positive ion mode and dynamic multiple reaction monitoring (MRM) mode. The ESI source conditions were as follows: ion spray voltage, 5.5 kV; ion source temperature, 600°C; Gas source 1 (GS1, N2) pressure, 50 psi; Gas source 2 (GS2, N2) pressure, 60 psi; curtain gas (CUR) pressure, 12 psi; and collision gas (CAD) pressure, 10 psi. EP and CXP were set at […] for all analytes. The scan range was m/z 359.9→298.1 for AAI and m/z 130.0→71.2 for IS (Internal Standard, metformin). […] Intra- and inter-day precision was lower than 4.5% with reference to relative standard deviation, while accuracy was within ±6.5% in terms of relative error for analytes. Analyst software (version 1.4.1) was used for equipment control and data acquisition and analysis.

[1] = In vivo renal clearance / pharmacokinetics of AAI after intravenous administration with or without JBP485; parameters: species or system rat; conditions: rats, i.v.
Procedure: Rats were randomly assigned to an AAI (4 mg/kg) group or an AAI (4 mg/kg) + JBP485 (50 mg/kg) group (n = 5 per group). The drugs were diluted in normal saline and administered intravenously via the left jugular vein. Subsequently, blood samples (0.2 mL) were collected via the right jugular vein with heparinized syringes at 1, 3, 5, 10, 30, 60, 120, 240, 360, and 480 min post-treatment. Isotonic saline solution (0.2 mL) was injected after each blood sample collection. Urine was collected directly from the bladder at 2, 4, 6, and 8 h after drug administration. AAI concentrations were measured by LC–MS/MS. Pharmacokinetic parameters, renal clearance (CLR), and cumulative urinary excretion were calculated.
as §1

[2] = AAI 4 mg/kg with or without JBP485 50 mg/kg, n = 5

Structure (SMILES) | type of inhibition of AAI uptake (hOAT3; hOAT3-HEK293 cells, Km increased, Vmax unchanged) | IC50 (hOAT3; hOAT3-transfected HEK293 cells, substrate AAI, read-out: IC50 of inhibition of AAI uptake, OAT3) [µM] | cumulative urinary excretion of AAI over 8 h ([1]; co-treatment with JBP485 50 mg/kg vs AAI 4 mg/kg alone) | AAI plasma concentrations ([1]; concurrent JBP485 50 mg/kg vs AAI 4 mg/kg alone) | Km (hOAT3; hOAT3-HEK293 cells, with or without JBP485, Eadie-Hofstee, n = 3) [µM] | Vmax of AAI uptake (hOAT3; hOAT3-HEK293 cells, with or without JBP485, n = 3) [nmol/mg protein/1min] | AUC0-∞ of AAI [1, 2] [µg·min/L] | AUC(0-t) of AAI [1, 2] [µg·min/L] | CLR (renal clearance) of AAI [1, 2] [L/min/kg] | CLp (plasma clearance) of AAI [1, 2] [L/min/kg] | Vd of AAI [1, 2] [L/kg] | t1/2β of AAI [1, 2] [min]
O=C1N[C@@H](CO)C(=O)N2C[C@H](O)C[C@@H]12 (relative stereo) [JBP485, cyclo-trans-4-L-hydroxyprolyl-L-serine] | competitive inhibition | 91 ± 10.3 | reduction | significantly increased |  |  |  |  |  |  |  | 
COc1cccc2c1cc([N+](=O)[O-])c1c(C(=O)O)cc3c(c12)OCO3 [AAI, Aristolochic Acid I] |  |  |  |  | 30.6 ± 1.2 | 0.077 ± 0.03 | 536.2 ± 14.3 | 496.0 ± 14.5 | 1.24 ± 0.09 | 7.5 ± 0.2 | 232.9 ± 13.0 | 96.6 ± 6.41
